For 10 compounds, GI50 and TGI results are on record in PubChem BioAssay (NCI).

The structures appear in SMILES notation.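 Values below derive from 48-hour exposures of cells grown in 96-well plates, with endpoints linearly interpolated between the two concentrations bracketing the appropriate inhibition level. GI50 = concentration required for 50% inhibition of growth. TGI: total growth inhibition.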

Test systems include A498 renal; CAKI-1 renal; KM12 colon; RPMI-8226 leukemia; SN12C renal; OVCAR-5 ovarian; SK-MEL-2 melanoma; SK-MEL-28 melanoma; U251 CNS.
Experiment in all cases: growth of human tumour cells (NCI), 48 h

For `CCC[CH2][Sn]1([CH2]CCC)[O]CC(Cc2ccccc2)[O]1` (stereo not drawn), the GI50 was 2.77 µM in the assay with A498 renal; 1.51 µM in the assay with CAKI-1 renal; 3.77 µM with KM12 colon; 0.312 µM with RPMI-8226 leukemia; 3.5 µM in the assay with SN12C renal; 11.2 µM with OVCAR-5 ovarian. For the same compound, the GI50 with SK-MEL-2 melanoma is 1.54 µM; with SK-MEL-28 melanoma, 1.58 µM; with U251 CNS it was 1.85 µM. Moreover, the TGI with A498 renal was found to be 8.22 µM; in the assay with CAKI-1 renal it was 4.45 µM; with KM12 colon, 14.4 µM; in the assay with RPMI-8226 leukemia, 3.62 µM; in the assay on SN12C renal, 11.7 µM; in the assay on OVCAR-5 ovarian, 23.3 µM. The TGI in the assay on SK-MEL-2 melanoma came to 3.45 µM; in the assay with SK-MEL-28 melanoma, 5.24 µM; in the assay on U251 CNS, 3.91 µM.
In the case of `COC(=O)/C=C1/CCC(C(=O)OC)N1` (stereo not drawn), the TGI in the assay on A498 renal, in the assay on CAKI-1 renal, with KM12 colon, in the assay with RPMI-8226 leukemia, in the assay on SN12C renal and in the assay on SK-MEL-2 melanoma was greater than 100 µM each time. The TGI with SK-MEL-28 melanoma and with U251 CNS was greater than 100 µM each time.
Regarding `CCCCCC[N+](C)(C)Cc1ccc(C[N+](C)(C)CCCCCC)cc1`, the TGI worked out at 38.9 µM in the assay with A498 renal; 14.6 µM in the assay on CAKI-1 renal; 9.96 µM in the assay with RPMI-8226 leukemia; 12.7 µM in the assay on SN12C renal; 24.7 µM in the assay with OVCAR-5 ovarian; 5.15 µM in the assay with SK-MEL-2 melanoma. Further, the TGI in the assay on SK-MEL-28 melanoma was 23.6 µM; in the assay with U251 CNS it was 7.28 µM.
In the case of `CN(C)CC(C)(C)C(=O)/C=C/c1ccc(/C=C/C(=O)C(C)(C)CN(C)C)cc1`, the TGI with A498 renal was found to be 3.46 µM; in the assay with CAKI-1 renal, 2.9 µM; in the assay with KM12 colon it was 3.25 µM; in the assay with RPMI-8226 leukemia, 5.47 µM; with SN12C renal it was 3.55 µM; with OVCAR-5 ovarian, 3.51 µM. Moreover, the TGI worked out at 3.5 µM in the assay with SK-MEL-28 melanoma and 3.04 µM with U251 CNS.
In the case of `[Cl-].[O-]/N=C(\c1ccccc1)c1ccccn1.[O-]/N=C(\c1ccccc1)c1ccccn1.[O-]/N=C(\c1ccccc1)c1ccccn1.[Sm+3]`, the GI50 is 58.3 µM in the assay with A498 renal; 27.1 µM in the assay with CAKI-1 renal; 17.6 µM with KM12 colon; 47.4 µM in the assay with RPMI-8226 leukemia; 33.1 µM in the assay on SN12C renal; 53.9 µM in the assay on OVCAR-5 ovarian. The GI50 with SK-MEL-2 melanoma is 22 µM; in the assay with SK-MEL-28 melanoma, 30.5 µM; in the assay with U251 CNS, 38 µM. Besides, the TGI in the assay on A498 renal is greater than 100 µM; in the assay on CAKI-1 renal it was 89.5 µM; with KM12 colon it was greater than 100 µM; in the assay with RPMI-8226 leukemia, greater than 100 µM; in the assay on SN12C renal, greater than 100 µM; with OVCAR-5 ovarian, greater than 100 µM. Also, the TGI is 52.8 µM in the assay with SK-MEL-2 melanoma, 94.8 µM in the assay on SK-MEL-28 melanoma and greater than 100 µM in the assay with U251 CNS.
For `Cc1ccc(SC(CCC(Sc2ccc(C)cc2)Sc2ccc(C)cc2)Sc2ccc(C)cc2)cc1`, the TGI with A498 renal, in the assay on CAKI-1 renal, with KM12 colon, in the assay with RPMI-8226 leukemia, in the assay on SN12C renal and in the assay with SK-MEL-2 melanoma was greater than 100 µM each time. For the same compound, the TGI with SK-MEL-28 melanoma and with U251 CNS was greater than 100 µM each time.
Take `c1cc(N(CCn2cccn2)CCn2cccn2)cc(N(CCn2cccn2)CCn2cccn2)c1`: the TGI in the assay with A498 renal, with CAKI-1 renal, in the assay on KM12 colon, in the assay with RPMI-8226 leukemia, in the assay on SN12C renal and in the assay with SK-MEL-2 melanoma was greater than 100 µM each time. The TGI with SK-MEL-28 melanoma and in the assay on U251 CNS was greater than 100 µM in each case.
As to `CCOC(=O)C1N(S(=O)(=O)c2ccc(C)cc2)CCC12c1ccccc1N(C(C)=O)C2c1ccc(OC)c(OC)c1` (stereo not drawn), the TGI with A498 renal, in the assay on CAKI-1 renal, with KM12 colon, in the assay with RPMI-8226 leukemia, with SN12C renal and with OVCAR-5 ovarian was greater than 100 µM throughout. For the same compound, the TGI with SK-MEL-28 melanoma and with U251 CNS was greater than 100 µM in each case.
As to `CC(=O)[CH-]C(C)=O.CC(=O)[CH-]C(C)=O.[CH2-]CCC.[CH2-]CCC.[Sn+4]`, the GI50 in the assay on A498 renal was 0.259 µM; in the assay with CAKI-1 renal, 0.151 µM; in the assay with KM12 colon it was 1.11 µM; with SN12C renal, 0.346 µM; with OVCAR-5 ovarian, 1.82 µM; in the assay with SK-MEL-2 melanoma, 0.309 µM. In addition, the figures for the GI50 in the assay on SK-MEL-28 melanoma and in the assay on U251 CNS were 0.436 µM and 0.304 µM, respectively. Besides, the TGI with A498 renal came out at 0.73 µM; with CAKI-1 renal it was 0.874 µM; with KM12 colon it was 2.33 µM; in the assay on SN12C renal it was 1.67 µM; in the assay with OVCAR-5 ovarian, 3.22 µM; with SK-MEL-2 melanoma, 1.22 µM. Moreover, the values for the TGI with SK-MEL-28 melanoma and in the assay with U251 CNS were 1.67 µM and 1.06 µM, respectively.
As for `COc1ccc(Nc2nc3ccc(C(F)(F)F)cc3nc2-c2ccccc2)cc1OC`, the TGI in the assay with A498 renal is greater than 100 µM; with CAKI-1 renal, 86.1 µM; in the assay with KM12 colon, greater than 100 µM; with SN12C renal, greater than 100 µM; in the assay on OVCAR-5 ovarian, greater than 100 µM; in the assay on SK-MEL-2 melanoma it was greater than 100 µM. For the same compound, the TGI with SK-MEL-28 melanoma and in the assay on U251 CNS was greater than 100 µM each time.
